The values that follow come from PMC5501782 (Scientific Reports, 2017).

This assay has as its system influenza virus (A/Puerto Rico/8/34, PR8) expressing green fluorescent protein (PR8-GFP). It is filed as cell-based.

Non-standard residues stand in square brackets, D forms with d. Residues, ends and D or L forms follow the SMILES beside them.

Regarding `CC(C)C[C@@H](NC(=O)[C@@H](CC(C)C)NC(=O)[C@@H](CC(N)=O)NC(=O)[C@H](NC(=O)[C@@H](Cc1ccccc1)NC(=O)CNC(=O)[C@@H](Cc1ccc(O)cc1)NC(=O)CNC(=O)[C@@H](CCCNC(=N)N)NC(=O)[C@@H](CCCCN)NC(=O)[C@@H](CCCCN)NC(=O)[C@@H](CCCNC(=N)N)NC(=O)[C@@H](CCCNC(=N)N)NC(=O)[C@@H](CCC(N)=O)NC(=O)[C@@H](CCCNC(=N)N)NC(=O)[C@@H](CCCNC(=N)N)NC(=O)[C@H](N)CCCNC(=N)N)C(C)C)C(=O)N[C@H](Cc1ccccc1)C(=O)N[C@H](CC(C)C)C(=O)N[C@@H](C(=O)N[C@@H](C(=O)N[C@H](CCC(=O)O)C(=O)O)C(C)C)C(C)C` [TAT-Kα2] (H-[dR][dR][dR][dQ][dR][dR][dK][dK][dR]G[dY]G[dF][dV][dN][dL][dL][dF][dL][dV][dV][dE]-OH), the “inhibition of PR8-GFP virus infection” value is recorded as “significantly inhibited”.
